Test results taken from patent EP0331014A2, “Use of ACE inhibitors in diabetes prophylaxis” (THERA - Patent Verwaltungs-GmbH, priority 1988, dated 1989).

Tested on: ÜBERGEWICHTIGEN FRAUEN
Test: Three-year placebo-controlled prophylaxis study: incidence of diabetes mellitus in overweight persons with impaired oral glucose tolerance
Assay type: in vivo, Patienten
Conditions: for DIABETES MELLITUS (ERKRANKUNGSRATE AN DIABETES MELLITUS): number of cases (WHO definition), 2 X 3 mg tgl.
Excerpt: Es wurden 122 übergewichtigte Personen ausgesucht, die im Mittel 25 % Übergewicht und eine gestörte orale Glukosetoleranz hatten. Diese Patienten gaben nach Aufklärung ihr Einverständnis an dieser Studie über 3 Jahre teilzunehmen. Sie hatten bereits 5 bis 10 Versuche einer Gewichtsabnahme hinter sich, die alle erfolglos verlaufen waren. Ein Diabetes mellitus war nach der Definition des World Health Organization-Reports (Techn. Rep. Ser. 646, 1-80, 1980), bei diesen Patieten ausgeschlossen. Sie wurden in zwei gleich starke Gruppen eingeteilt, so daß nach Alter, Ausmaß der Störung des Glucose-Toleranz-Tests (OGTT) und Größe und Dauer des Übergewichts kein Unterschied bestand. Die Patienten wurden in halbjährlichen Abständen ambulant kontrolliert. Wie zu Beginn, wurden bei diesen Kontrollen folgende Blutwerte gemessen: Blutsenkung, Blutbild, Nüchternblutzucker, OGTT, Gewicht, Cholesterin und Triglyzeride, Serum Glutamat-Oxalat-Transaminase (SGOT), Serum Glutamat-Pyruvat Transaminase (SGPT). Damit wurden den Stoffwechesl beeinträchtigende Krankheiten ausgeschlossen.
Sie erste Gruppe erhielt 2 x 3 mg Captopril täglich, die zweite entsprechend Placebo. Die Patienten hatten die Auflage, keine den Stoffwech l beeinträchtigende Medikamente, z.B. Diuretika, β-Blocker ode dergleichen einzunehmen. In beiden Gruppen schieden über den Zeitraum von 3 Jahren 28 Patienten aus verschiede nen Gründen aus. Die Gruppen veränderten sich dadurch jedoch nicht so, daß sie statistisch nicht mehr auswertbar waren.

## C[C@H](CS)C(=O)N1CCC[C@H]1C(=O)O [Captopril, 1-[(2S)-3-Mercapto-2-methylpropionyl]-L-prolin]
Nach 3 Jahren, versus placebo, 2 x 3 mg täglich, p < 0,001 (Student's t-Test)
  Erkrankungsrate an Diabetes mellitus: geringere Erkrankungsrate an Diabetes mellitus
ZEITRAUM 1985 -1 (start), 63 in group
  DIABETES MELLITUS (ERKRANKUNGSRATE AN DIABETES MELLITUS): 0
ZEITRAUM 1986 - 2, 60 in group
  DIABETES MELLITUS (ERKRANKUNGSRATE AN DIABETES MELLITUS): 2
ZEITRAUM 1987 - 2, 54 in group
  DIABETES MELLITUS (ERKRANKUNGSRATE AN DIABETES MELLITUS): 4
ZEITRAUM 1988 - 1, 48 in group, placebo 11 of 46, p< 0,001
  DIABETES MELLITUS (ERKRANKUNGSRATE AN DIABETES MELLITUS): 4
Risk groups (strongly overweight, older than 50 years; risk about 45 % over two years), 2 x 3 mg pro Tag
  Verminderung dieses Risikos (an Diabetes mellitus zu erkranken): > 50%
